The values below come from US4847295A, “Cycloalkyl-substituted 4-aminophenyl halo derivatives and process for their preparation” (Farmitalia Carlo Erba S.r.l., priority 1987, dated 1989).

The target in assay [1] is T1, human placental aromatase (Homo sapiens, UniProt P11511).
T1 construct: isolated from the microsomal fraction of human placental tissue; from tissue; host or cells: human placenta, microsomal fraction
T1 sequence (P11511 1-503): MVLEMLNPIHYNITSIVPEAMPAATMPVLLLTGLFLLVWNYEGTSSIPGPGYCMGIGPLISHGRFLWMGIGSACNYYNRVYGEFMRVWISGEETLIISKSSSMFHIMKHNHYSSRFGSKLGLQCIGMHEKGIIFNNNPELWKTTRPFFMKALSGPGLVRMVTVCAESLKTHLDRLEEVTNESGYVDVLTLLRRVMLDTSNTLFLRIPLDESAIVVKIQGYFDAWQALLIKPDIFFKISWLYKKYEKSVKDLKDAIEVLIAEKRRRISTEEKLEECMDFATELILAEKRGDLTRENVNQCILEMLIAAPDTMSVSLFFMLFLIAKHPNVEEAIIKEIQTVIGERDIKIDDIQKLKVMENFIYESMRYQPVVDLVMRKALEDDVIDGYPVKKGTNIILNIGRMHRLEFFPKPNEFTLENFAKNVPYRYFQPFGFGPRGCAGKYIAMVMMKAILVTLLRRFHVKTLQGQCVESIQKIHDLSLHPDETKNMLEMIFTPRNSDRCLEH
Put plainly: Inhibition of human placental aromatase in vitro (3H2O release from labelled androstenedione, microsomal fraction). Type of assay: biochemical. As to conditions: for Relative potency: versus aminoglutethimide (1 by definition). How it is done:
The assay of the aromatase inhibition in vitro was carried out as follows: the enzyme system was isolated from the microsomal fraction of human placental tissue according to standard procedure.
All incubations were carried out in a shaking water bath at 37° C. in air in 10 mM potassium phosphate buffer, pH 7.5, which contained 100 mM Kcl, 1 mM EDTA and 1 mM dithiothreitol. The experiments were carried out in 1 ml incubation volume containing 50 nM 4-[^3 H]androstenedione, various concentrations of the inhibitors. 100 μm NADPH and 0.05 mg of microsomal proteins. After 15 minutes of incubation the reaction was stopped by the addition of chloroform (5 ml).
After centrifugation at 1500 xg for 5 minutes, aliquots (0.5 ml) were removed from the water phase for determination of ^3 H2 O formed.

A further assay deals with aromatase. To be noted: reported in literature; cited from earlier work.

In assay [1] (human placental microsomes, 50 nM 4-[3H]androstenedione, 100 μm NADPH, pH 7.5, 37° C., 15 min), `Nc1ccc(C(C(=O)NC2CCCCC2)C(F)(F)F)cc1` (racemic) [FCE 25331, N-cyclohexyl-2-(4'-aminophenyl)-3,3,3-trifluoropropanamide] displayed an IC50 of 330 nM. In addition, in assay [1], the Relative potency is recorded as 6.4. In the case of `Nc1ccc(C2CCCCC2)cc1` [4-cyclohexylaniline], the Relative potency in assay [1] came to 1.7. Further, in the assay with aromatase, the “aromatase-inhibiting action (in words)” value is “more or less selective aromatase-inhibiting action”.

`CCC1(c2ccncc2)CCC(=O)NC1=O` (centres unmarked) [4-pyridyl-3-ethyl-2,6-piperidinedione]: the “aromatase-inhibiting action (in words)” value with aromatase is “more or less selective aromatase-inhibiting action”.

What is called IC50 is the concentration needed to halve the response being measured. Read a low IC50 as inhibition by little substance.
